Laboratory results taken from ChEMBL document CHEMBL4017463, “Practical application of 3-substituted-2,6-difluoropyridines in drug discovery: Facile synthesis of novel protein kinase C theta inhibitors” (Bioorg Med Chem Lett, 2017).

Each molecule was assayed against Protein kinase C theta type (Homo sapiens, UniProt Q04759) (assay: Inhibition of N-terminal FLAG-tagged PKCtheta (unknown origin) expressed in baculovirus expression system using fluorescein-PKC as substrate preincubated for 5 mins followed by substrate addition measured after 60 mins in presence of ATP by Lathascreen TR-FRET assay).
Sequence of Protein kinase C theta type (Q04759 whole entry): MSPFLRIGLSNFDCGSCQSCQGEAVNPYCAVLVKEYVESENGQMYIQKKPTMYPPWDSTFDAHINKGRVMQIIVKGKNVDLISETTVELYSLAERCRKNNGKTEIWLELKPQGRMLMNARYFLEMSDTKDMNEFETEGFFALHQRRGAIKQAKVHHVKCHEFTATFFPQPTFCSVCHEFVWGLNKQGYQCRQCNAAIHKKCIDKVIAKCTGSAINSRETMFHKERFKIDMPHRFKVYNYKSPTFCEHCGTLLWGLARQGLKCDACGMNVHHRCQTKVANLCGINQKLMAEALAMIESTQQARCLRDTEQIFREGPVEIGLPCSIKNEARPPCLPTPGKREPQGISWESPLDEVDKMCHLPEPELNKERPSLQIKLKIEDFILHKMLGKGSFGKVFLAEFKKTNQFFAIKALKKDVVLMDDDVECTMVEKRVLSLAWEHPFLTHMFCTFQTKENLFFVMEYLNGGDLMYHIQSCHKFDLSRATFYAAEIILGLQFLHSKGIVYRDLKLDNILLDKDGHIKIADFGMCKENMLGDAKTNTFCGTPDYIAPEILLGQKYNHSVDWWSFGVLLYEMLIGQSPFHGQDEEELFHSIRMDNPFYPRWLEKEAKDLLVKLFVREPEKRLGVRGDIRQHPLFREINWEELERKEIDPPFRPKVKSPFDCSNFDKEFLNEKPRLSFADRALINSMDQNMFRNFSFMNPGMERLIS
In the case of O=c1[nH]c2ncccc2n1-c1nc(N2CCCNCC2)ccc1F, the IC50 is reported as 100 nM. Work on O=c1[nH]c2ncccc2n1-c1nc(N2CCCNCC2)ccc1Cl yielded an IC50 of 18 nM. In the case of CCOc1ccnc2[nH]c(=O)n(-c3nc(N4CCCNCC4)ccc3Cl)c12, the IC50 is reported as 0.086 nM. O=c1[nH]c2ncccc2n1-c1nc(N2CCCC(C(O)C3CC3)C2)ccc1F (stereo unspecified) gave an IC50 of over 1000 nM. In the case of CN1CCCCOc2ccnc3[nH]c(=O)n(c23)-c2nc1ccc2Cl, the IC50 is reported as 0.87 nM. With CN1CCCOc2ccnc3[nH]c(=O)n(c23)-c2nc1ccc2Cl the IC50 was 6.7 nM. Molecule O=c1[nH]c2nccc3c2n1-c1nc(ccc1Cl)OCCCCO3 has an IC50 of 14 nM. With CC(C)CC1CCCN1c1ccc(F)c(-n2c(=O)[nH]c3ncccc32)n1 (racemic) the IC50 was 250 nM. For CC(C)(C)OC(=O)N1CCN(c2ccc([N+](=O)[O-])c(-n3c(=O)[nH]c4ncccc43)n2)C(c2ccccc2)C1 (racemic), the IC50 was 0.18 nM. N#Cc1ccc(N2CCNCC2c2ccccc2)nc1-n1c(=O)[nH]c2ncccc21 (racemic) was tested, and the IC50 was 6.3 nM. Work on COc1ccnc2[nH]c(=O)n(-c3nc(N4CCNC(c5ccccc5)C4)ccc3Cl)c12 (racemic) yielded an IC50 of 33 nM.
